Assay results taken from patent US11913882B2, “Determination of the supramolecular organization of encapsulated molecules by luminescence lifetime analysis” (SCUOLA NORMALE SUPERIORE, priority 2020, dated 2024).

Assay: Fluorescence lifetime analysis (phasor-FLIM) of DOX organization states and Doxoves®
Type: physicochemical
Text: The procedure was applied to Doxoves® as follows: • 1) Based on previous knowledge, at least three different supramolecular organizations of DOX molecules are supposed to contribute to the overall nature of Doxoves® nanocarriers: crystallized DOX, free DOX, and DOX eventually associated with the nanocarrier surface, i.e. with lipids. These three forms are defined here as standards. • 2) The three standards identified at step 1 are obtained and measured. As a preliminary step, each standard is produced and dissolved in a buffer that is the same as that of the test substance. In the present case, manufacturer's indications were followed to produce the correct buffer composition. In general, substances having an impact on lifetime analysis of the test substance, e.g. Doxoves®, shall be also present in the standard substances. First, the phasor signature of crystalized DOX and free-in-solution DOX are measured: two mono-exponential lifetimes are obtained: 0.2 ns for the crystal and 1 ns for free DOX, respectively. […] Then, by spin-coating simil-Doxoves® nanoparticles on a glass surface. This procedure destroys mechanically the liposomal particles and recovers the liposomal membranes on the glass. […] It is important to note that lifetime measuring conditions, e.g. temperature, pH etc., shall be the same for measures on the test substance and measures on the standard substances. • 5) Doxoves® lifetime data are analysed by the phasor approach. In more detail, the phasor is calculated by using a dedicated routine in the SimFCS software (Laboratory for Fluorescence Dynamics, University of California, Irvine). […] Simple algebraic rules are adopted to extract quantitatively the relative contribution (fractional intensity) of each standard (by a dedicated routine in SimFCS software). • It may still be under question whether there may be more than three organization states, e.g. four defining a trapezoidal shape within the universal circle and circumscribing the location of the test substance lifetime decay within the universal circle. A final control experiment was thus performed to corroborate the hypothesis that only three standard components (and NOT more than three) contribute to the overall organization of encapsulated DOX. In brief, the lifetime of simil-Doxoves® in solution is measured. If only three components contribute to Doxoves® organization, simil-Doxoves® is expected to be a linear combination of just free DOX and DOX associated to nanocarrier lipids, thus lying along the segment that connects these two states.

[1] = within tested nanoparticles, FIG. 4, phasor plot triangle

Question: Which “fluorescence lifetime of free DOX in solution, mono-exponential” value (pure standard, free in water/buffer, phasor approach) does the source give for `COc1cccc2c1C(=O)c1c(O)c3c(c(O)c1C2=O)C[C@@](O)(C(=O)CO)C[C@@H]3O[C@H]1C[C@H](N)[C@H](O)[C@H](C)O1` [DOX, doxorubicin] here?
Answer: Its value is 1 ns.

Question: And the “fluorescence lifetime of crystalized DOX (purified rod-shaped crystals), mono-exponential” value (pure standard, excitation 470 nm, emission 500-650 nm, phasor approach)?
Answer: The value was 0.2 ns.

Question: What about the “fractional intensity of DOX conjugate with the lipids” value [1] of the same molecule?
Answer: Its value is 46%.

Question: And the “fractional intensity of DOX organized into nanorod crystals” value [1]?
Answer: The value was 36%.

Question: And the “fractional intensity of free DOX” value [1]?
Answer: Its value is 18%.
